According to patent publication US20150105252A1, “SUBSTITUTED PYRAZOLES AS HERBICIDES” (E I DU PONT DE NEMOURS AND COMPANY, priority 2013, published 2015):

What was measured:
[1] = test system: barnyardgrass; experiment: Test A preemergence; format: in vivo, Echinochloa crus-galli; details: preemergence
Summary of the method: (§1)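 Growth medium: loam soil blended with sand. Preemergence treatment used a directed soil spray right after planting; postemergence treatment targeted seedlings at one to two leaves (2–10 cm height). Response was judged by eye relative to untreated plants about 10 days later on a 0–100 control scale.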

[2] = test system: foxtail, giant; experiment: Test A preemergence; format: in vivo, Setaria faberii; details: preemergence
Summary of the method: as §1

[3] = test system: foxtail, giant; experiment: Test A postemergence; format: in vivo, Setaria faberii
Summary of the method: as §1

[4] = test system: ducksalad; experiment: Test B flood; format: in vivo, Heteranthera limosa; details: 250 g ai/ha, visual rating on 0 to 100 scale (0 no effect, 100 complete control), 13 to 15 days
Summary of the method: (§2)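 At two leaves, seedlings received the test compound via the paddy water, pots having been flooded 3 cm over the soil surface and kept so. Greenhouse-held for 13 to 15 days, then judged by eye against controls on a scale running 0 (no effect) to 100 (complete control).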

[5] = test system: corn; experiment: Test A postemergence; format: in vivo, Zea mays
Summary of the method: as §1

[6] = test system: morningglory; experiment: Test A preemergence; format: in vivo, Ipomoea spp.; details: preemergence
Summary of the method: as §1

[7] = test system: crabgrass, large; experiment: Test A postemergence; format: in vivo, Digitaria sanguinalis
Summary of the method: as §1

[8] = test system: sedge, umbrella; experiment: Test B flood; format: in vivo, Cyperus difformis; details: 250 g ai/ha, visual rating on 0 to 100 scale (0 no effect, 100 complete control), 13 to 15 days
Summary of the method: as §2

[9] = test system: wheat; experiment: Test A preemergence; format: in vivo, Triticum aestivum; details: preemergence
Summary of the method: as §1

[10] = test system: wheat; experiment: Test A postemergence; format: in vivo, Triticum aestivum
Summary of the method: as §1

[11] = test system: morningglory; experiment: Test A postemergence; format: in vivo, Ipomoea spp.
Summary of the method: as §1

[12] = test system: rice; experiment: Test B flood; format: in vivo, Oryza sativa; details: 250 g ai/ha, visual rating on 0 to 100 scale (0 no effect, 100 complete control), 13 to 15 days
Summary of the method: as §2

[13] = test system: velvetleaf; experiment: Test A postemergence; format: in vivo, Abutilon theophrasti
Summary of the method: as §1

[14] = test system: crabgrass, large; experiment: Test A preemergence; format: in vivo, Digitaria sanguinalis; details: preemergence
Summary of the method: as §1

[15] = test system: corn; experiment: Test A preemergence; format: in vivo, Zea mays; details: preemergence
Summary of the method: as §1

[16] = test system: pigweed; experiment: Test A postemergence; format: in vivo, Amaranthus retroflexus
Summary of the method: as §1

[17] = test system: barnyardgrass; experiment: Test A postemergence; format: in vivo, Echinochloa crus-galli
Summary of the method: as §1

[18] = test system: velvetleaf; experiment: Test A preemergence; format: in vivo, Abutilon theophrasti; details: preemergence
Summary of the method: as §1

[19] = test system: barnyardgrass; experiment: Test B flood; format: in vivo, Echinochloa crus-galli; details: 250 g ai/ha, visual rating on 0 to 100 scale (0 no effect, 100 complete control), 13 to 15 days
Summary of the method: as §2

[20] = test system: pigweed; experiment: Test A preemergence; format: in vivo, Amaranthus retroflexus; details: preemergence
Summary of the method: as §1

[21] = 125 g ai/ha, visual injury, 0 to 100 scale, approx. 10 days
[22] = 500 g ai/ha, visual injury after approx. 10 days, 0 to 100 scale (0 no effect, 100 complete control)
[23] = Postemergence, 500 g ai/ha, visual rating after approx. 10 days, 0 to 100 scale (0 no effect, 100 complete control)
[24] = postemergence, 125 g ai/ha, about 10 days, visual rating on 0 to 100 scale (0 no effect, 100 complete control)

Row | SMILES | Barnyardgrass plant response rating [1, 21] | Barnyardgrass plant response rating [1, 22] | Foxtail, Giant plant response rating [2, 21] | Foxtail, Giant plant response rating [2, 22] | Foxtail, Giant plant response rating [3, 23] | Foxtail, Giant plant response rating [3, 24] | Plant response rating, Ducksalad [4] | Corn plant response rating [5, 23] | Corn plant response rating [5, 24] | Morningglory plant response rating [6, 21] | Morningglory plant response rating [6, 22] | Crabgrass, Large plant response rating [7, 23] | Crabgrass, Large plant response rating [7, 24] | Plant response rating, Sedge, Umbrella [8] | Wheat plant response rating [9, 21] | Wheat plant response rating [9, 22] | Wheat plant response rating [10, 23] | Wheat plant response rating [10, 24] | Morningglory plant response rating [11, 23] | Morningglory plant response rating [11, 24] | other results
1 | CCc1cc(C(=O)NOC)nn1Cc1ccnc(C(F)(F)F)c1 [Compound 99] | 40 | 100 | 90 | 100 | 100 | 60 | 50 | 90 | 50 | 60 | 100 | 100 | 60 | 75 | 0 | 60 | 70 | 20 | 100 | 50 | Plant response rating, Rice [12]: 0; Velvetleaf plant response rating [13, 23]: 90; Velvetleaf plant response rating [13, 24]: 20; Crabgrass, Large plant response rating [14, 21]: 100; Crabgrass, Large plant response rating [14, 22]: 100; Corn plant response rating [15, 21]: 50; Corn plant response rating [15, 22]: 90; Pigweed plant response rating [16, 23]: 100; Pigweed plant response rating [16, 24]: 70; Barnyardgrass plant response rating [17, 23]: 90; Barnyardgrass plant response rating [17, 24]: 20; Velvetleaf plant response rating [18, 21]: 10; Velvetleaf plant response rating [18, 22]: 80; Plant response rating, Barnyardgrass [19]: 0; Pigweed plant response rating [20, 21]: 90; Pigweed plant response rating [20, 22]: 100
2 | CCc1cc(-c2ccc(F)cc2)nn1Cc1ccnc(C(F)(F)F)c1 [Compound 111] | 10 | 90 | 90 | 100 | 100 | 40 | 0 | 50 | 10 | 0 | 30 | 100 | 30 | 90 | 0 | 0 | 30 | 10 | 100 | 90 | Plant response rating, Rice [12]: 20; Velvetleaf plant response rating [13, 23]: 90; Velvetleaf plant response rating [13, 24]: 40; Crabgrass, Large plant response rating [14, 21]: 90; Crabgrass, Large plant response rating [14, 22]: 100; Corn plant response rating [15, 21]: 0; Corn plant response rating [15, 22]: 0; Pigweed plant response rating [16, 23]: 100; Pigweed plant response rating [16, 24]: 80; Barnyardgrass plant response rating [17, 23]: 80; Barnyardgrass plant response rating [17, 24]: 20; Velvetleaf plant response rating [18, 21]: 10; Velvetleaf plant response rating [18, 22]: 30; Plant response rating, Barnyardgrass [19]: 15; Pigweed plant response rating [20, 21]: 20; Pigweed plant response rating [20, 22]: 100
3 | CCc1cc(-c2ccc(Br)cc2)nn1Cc1ccnc(C(F)(F)F)c1 [Compound 112] | 0 | 10 | 70 | 80 | 20 | 10 | 0 | 30 | 0 | 0 | 0 | 20 | 10 | 0 | 0 | 0 | 40 | 10 | 70 | 40 | Plant response rating, Rice [12]: 20; Velvetleaf plant response rating [13, 23]: 40; Velvetleaf plant response rating [13, 24]: 20; Crabgrass, Large plant response rating [14, 21]: 70; Crabgrass, Large plant response rating [14, 22]: 90; Corn plant response rating [15, 21]: 0; Corn plant response rating [15, 22]: 0; Pigweed plant response rating [16, 23]: 90; Pigweed plant response rating [16, 24]: 30; Barnyardgrass plant response rating [17, 23]: 20; Barnyardgrass plant response rating [17, 24]: 0; Velvetleaf plant response rating [18, 21]: 0; Velvetleaf plant response rating [18, 22]: 10; Plant response rating, Barnyardgrass [19]: 20; Pigweed plant response rating [20, 21]: 0; Pigweed plant response rating [20, 22]: 50
4 | CCc1cc(-c2ccc(C(F)(F)F)cc2)nn1Cc1nc(C(F)(F)F)nn1C [Compound 115] | 20 | 80 | 90 | 90 | 80 | 30 | 0 | 40 | 20 | 0 | 40 | 90 | 50 | 80 | 0 | 20 | 40 | 0 | 80 | 30 | Plant response rating, Rice [12]: 20; Velvetleaf plant response rating [13, 23]: 100; Velvetleaf plant response rating [13, 24]: 60; Crabgrass, Large plant response rating [14, 21]: 90; Crabgrass, Large plant response rating [14, 22]: 100; Corn plant response rating [15, 21]: 0; Corn plant response rating [15, 22]: 20; Pigweed plant response rating [16, 23]: 100; Pigweed plant response rating [16, 24]: 90; Barnyardgrass plant response rating [17, 23]: 60; Barnyardgrass plant response rating [17, 24]: 30; Velvetleaf plant response rating [18, 21]: 20; Velvetleaf plant response rating [18, 22]: 20; Plant response rating, Barnyardgrass [19]: 0; Pigweed plant response rating [20, 21]: 90; Pigweed plant response rating [20, 22]: 100
